Experimental data taken from PubChem BioAssay AID2060487 (Molecular Pharmacology Branch, DTP, NCI, 2025).

System: 997537-175-T-J1-PDC complex spheroid viability
Assay: Anticancer human tumor 997537-175-T-J1-PDC patient-derived colon adenocarcinoma cell line growth inhibition [GQUAD]
Settings: for IC50: curve of first compound; for viability, T/C: stronger effect = lower value
Text: DNA G-quadruplex Stabilizer Agents in Combinations in Complex Spheroids
A high-throughput screen of multi-cell type tumor spheroids was designed to identify active combinations of DNA G-quadruplex stabilizer agents and targeted small molecules. Complex spheroids include a stromal component modeled by human endothelial cells (HUVEC) and fibroblasts modeled by human mesenchymal stem cells (MSCs). The concentration ranges selected for each drug and investigational agent were based upon clinically achievable concentrations if the clinical Cmax of the agent was known.
Compounds. The drugs and investigational agents: pidnarulex (CX-5461; NSC782164), APTO-253 (NSC789042), BRACO-19 (NSC847499), peposertib (NSC802822), ceralasertib (NSC780249), elimusertib (NSC800525), camonsertib (NSC841442), AZD-1390 (NSC803789), olaparib (NSC753686), talazoparib (NSC767125), ART-558 (NSC835418), sotorasib (NSC818433), MRTX-1133 (NSC836407), SN-38 (NSC673596), topotecan (NSC609699), etoposide (NSC141540), doxorubicin (NSC123127), gemcitabine (NSC613327), 5-fluorouracil (NSC19893), paclitaxel (NSC125973), vemurafenib (NSC761431), panobinostat (NSC761190), R-306465 (JNJ-16241199; NSC773264), adavosertib (NSC754352), TP-3654 (NSC805149), carboplatin (NSC241240), KSQ-4279 (NSC840948), and staurosporine (NSC755774) were obtained from the National Cancer Institute (NCI) Developmental Therapeutics Program Chemical Repository (34). The FDA-approved anticancer drug set is available from the NCI Developmental Therapeutics Program. […] The stock solutions were prepared in dimethyl sulfoxide (DMSO, Sigma-Aldrich, St. Louis, MO, cat. D2650) at 800-fold the tested concentration and stored at -70 degrees C prior to their use. All drugs and investigational agents were tested over a range starting from a high concentration at or near the clinical Cmax and decreasing in half-log increments. If the clinical Cmax for an agent had not been determined, the highest concentration tested was 10 microM.
2.3 Cell Culture. All cells were maintained in an incubator at 37 degrees C and 5% CO2 with 95% humidity. The PDC lines were cultured according to standard operating procedures established by the NCI PDMR. All PDCs were thawed and cultured in Matrigel-coated flasks prepared with a working solution of 1X Ham's F-12 nutrient mix, without supplementation (Invitrogen, cat. 11765054), 100 U/mL penicillin-streptomycin (Invitrogen, cat. 15140122), and 2.5% Matrigel (Corning Inc., cat. 354248) for the first three passages. The 857933-349-R-J2-PDC line was cultured in 6C/Colon 1B media, which includes advanced DMEM/F-12 (Thermo Fisher Scientific, cat. 12634028), 10 mM HEPES (Thermo Fisher Scientific, cat. 15630080), 1X GlutaMAX supplement (Thermo Fisher Scientific, cat. 35050061), 0.1 mg/mL primocin (InvivoGen, cat. ant-pm-2), 10% defined fetal bovine serum, heat inactivated (HyClone Laboratories Inc., cat. SH30070.03HI), 50% L-WRN conditioned media (ATCC, cat. CRL-3276), 1.25 mM N-Acetyl-L-cysteine (Sigma-Aldrich, cat. A9165), 10 mM nicotinamide (Sigma-Aldrich, cat. N0636), 1X B-27 supplement (Thermo Fisher Scientific, cat. 17504044), 1X N-2 supplement (Thermo Fisher Scientific, cat. 17502048), 10 microM Y-27632 dihydrochloride (Tocris Bioscience, cat. 1254), and 50 ng/mL human EGF recombinant protein (Thermo Fisher Scientific, cat. PHG0311). The 485176-168-R4-J1-PDC line was cultured in Panc media, which includes all 6C/Colon 1B media components plus 100 ng/mL human FGF-10 (Thermo Fisher Scientific, cat. 100-26), 500 nM SB-431542 (Selleckchem, cat. S1067), and gastrin (Tocris, cat. 3006).
[…]

[1] = second compound 0.0316 µM, first compound 0.0316 µM
[2] = second compound 0.0316 µM, first compound 0.1 µM
[3] = second compound 0.0316 µM, first compound 0.316 µM
[4] = second compound 0.0316 µM, first compound 1 µM
[5] = second compound 0.0316 µM, first compound 3.16 µM
[6] = second compound 0.0316 µM, first compound 10 µM
[7] = second compound 0.1 µM, first compound 0.0316 µM
[8] = second compound 0.1 µM, first compound 0.1 µM
[9] = second compound 0.1 µM, first compound 0.316 µM
[10] = second compound 0.1 µM, first compound 1 µM
[11] = second compound 0.1 µM, first compound 3.16 µM
[12] = second compound 0.1 µM, first compound 10 µM
[13] = second compound 0.316 µM, first compound 0.0316 µM
[14] = second compound 0.316 µM, first compound 0.1 µM
[15] = second compound 0.316 µM, first compound 0.316 µM
[16] = second compound 0.316 µM, first compound 1 µM
[17] = second compound 0.316 µM, first compound 3.16 µM
[18] = second compound 0.316 µM, first compound 10 µM
[19] = second compound 1 µM, first compound 0.0316 µM
[20] = second compound 1 µM, first compound 0.1 µM
[21] = second compound 1 µM, first compound 0.316 µM
[22] = second compound 1 µM, first compound 1 µM
[23] = second compound 1 µM, first compound 3.16 µM
[24] = second compound 1 µM, first compound 10 µM
[25] = second compound 3.16 µM, first compound 0.0316 µM
[26] = second compound 3.16 µM, first compound 0.1 µM
[27] = second compound 3.16 µM, first compound 0.316 µM
[28] = second compound 3.16 µM, first compound 1 µM
[29] = second compound 3.16 µM, first compound 3.16 µM
[30] = second compound 3.16 µM, first compound 10 µM
[31] = second compound 10 µM, first compound 0.0316 µM
[32] = second compound 10 µM, first compound 0.1 µM
[33] = second compound 10 µM, first compound 0.316 µM
[34] = second compound 10 µM, first compound 1 µM
[35] = second compound 10 µM, first compound 3.16 µM
[36] = second compound 10 µM, first compound 10 µM
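Also: spheroids exposed to the agents for 7 days.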
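For viability, T/C in this document: 100% = DMSO vehicle control viability.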

Q: `COc1cc(C2c3cc4c(cc3C(OC3OC5COC(C)OC5C(O)C3O)C3COC(=O)C23)OCO4)cc(OC)c1O` (centres undefined) + Cc1cnc(CNC(=O)c2c(=O)c3ccc(N4CCCN(C)CC4)nc3n3c2sc2ccccc23)cn1 was tested. Which IC50 (second compound 0.0316 µM) did it give?
A: > 10000 nM

Q: What about the IC50 (second compound 0.1 µM) of the same molecule?
A: > 10000 nM

Q: And the IC50 (second compound 0.316 µM)?
A: 5740 nM

Q: What about the IC50 (second compound 1 µM) of the same molecule?
A: > 10000 nM

Q: And the IC50 (second compound 3.16 µM)?
A: > 10000 nM

Q: And the IC50 (second compound 10 µM)?
A: > 10000 nM

Q: And the viability, T/C [1]?
A: 113%

Q: What about the viability, T/C [2] of the same molecule?
A: 97.7%

Q: And the viability, T/C [3]?
A: 101%

Q: What about the viability, T/C [4] of the same molecule?
A: 60.2%

Q: And the viability, T/C [5]?
A: 78.6%

Q: What about the viability, T/C [6] of the same molecule?
A: 53%

Q: What about the viability, T/C [7] of the same molecule?
A: 109%

Q: And the viability, T/C [8]?
A: 96.5%

Q: And the viability, T/C [9]?
A: 84.9%

Q: What about the viability, T/C [10] of the same molecule?
A: 71.3%

Q: And the viability, T/C [11]?
A: 63.2%

Q: And the viability, T/C [12]?
A: 76.7%

Q: And the viability, T/C [13]?
A: 78%

Q: What about the viability, T/C [14] of the same molecule?
A: 109%

Q: And the viability, T/C [15]?
A: 104%

Q: What about the viability, T/C [16] of the same molecule?
A: 89.1%

Q: What about the viability, T/C [17] of the same molecule?
A: 60%

Q: And the viability, T/C [18]?
A: 40.9%

Q: And the viability, T/C [19]?
A: 88.1%

Q: And the viability, T/C [20]?
A: 84.1%

Q: And the viability, T/C [21]?
A: 97.3%

Q: And the viability, T/C [22]?
A: 101%

Q: What about the viability, T/C [23] of the same molecule?
A: 75.3%

Q: And the viability, T/C [24]?
A: 63.3%

Q: And the viability, T/C [25]?
A: 62.1%

Q: And the viability, T/C [26]?
A: 99.2%

Q: And the viability, T/C [27]?
A: 104%

Q: What about the viability, T/C [28] of the same molecule?
A: 86.2%

Q: What about the viability, T/C [29] of the same molecule?
A: 76.4%

Q: What about the viability, T/C [30] of the same molecule?
A: 50.7%

Q: What about the viability, T/C [31] of the same molecule?
A: 71.4%

Q: What about the viability, T/C [32] of the same molecule?
A: 84.9%

Q: What about the viability, T/C [33] of the same molecule?
A: 106%

Q: And the viability, T/C [34]?
A: 98.5%

Q: And the viability, T/C [35]?
A: 88.6%

Q: What about the viability, T/C [36] of the same molecule?
A: 69.5%

Q: `CC(C)(O)C1CCC(Nc2ccc3ncc(-c4cccc(C(F)(F)F)c4)n3n2)CC1` (centres undefined) + CN(C)c1ccc(Nc2c3ccc(NC(=O)CCN4CCCC4)cc3nc3cc(NC(=O)CCN4CCCC4)ccc23)cc1 was tested. Which IC50 (second compound 0.0316 µM) did it give?
A: 2030 nM

Q: What about the IC50 (second compound 0.1 µM) of the same molecule?
A: 1820 nM

Q: What about the IC50 (second compound 0.316 µM) of the same molecule?
A: 1850 nM

Q: What about the IC50 (second compound 1 µM) of the same molecule?
A: 2230 nM

Q: What about the IC50 (second compound 3.16 µM) of the same molecule?
A: 1450 nM

Q: And the IC50 (second compound 10 µM)?
A: 2020 nM

Q: What about the viability, T/C [1] of the same molecule?
A: 99.5%

Q: And the viability, T/C [2]?
A: 108%

Q: What about the viability, T/C [3] of the same molecule?
A: 88%

Q: And the viability, T/C [4]?
A: 65.8%

Q: What about the viability, T/C [5] of the same molecule?
A: 41.1%

Q: What about the viability, T/C [6] of the same molecule?
A: 26.1%

Q: What about the viability, T/C [7] of the same molecule?
A: 83.8%

Q: And the viability, T/C [8]?
A: 89.8%

Q: And the viability, T/C [9]?
A: 78.2%

Q: And the viability, T/C [10]?
A: 58.9%

Q: What about the viability, T/C [11] of the same molecule?
A: 38.2%

Q: What about the viability, T/C [12] of the same molecule?
A: 45.8%

Q: What about the viability, T/C [13] of the same molecule?
A: 85.2%

Q: And the viability, T/C [14]?
A: 78.5%

Q: What about the viability, T/C [15] of the same molecule?
A: 78.2%

Q: What about the viability, T/C [16] of the same molecule?
A: 75.3%

Q: And the viability, T/C [17]?
A: 27.9%

Q: What about the viability, T/C [18] of the same molecule?
A: 20.4%

Q: What about the viability, T/C [19] of the same molecule?
A: 61.4%

Q: What about the viability, T/C [20] of the same molecule?
A: 91.5%

Q: What about the viability, T/C [21] of the same molecule?
A: 79.2%

Q: And the viability, T/C [22]?
A: 81%

Q: And the viability, T/C [23]?
A: 30.4%

Q: What about the viability, T/C [24] of the same molecule?
A: 44.9%

Q: What about the viability, T/C [25] of the same molecule?
A: 64.5%

Q: And the viability, T/C [26]?
A: 85.5%

Q: And the viability, T/C [27]?
A: 79.4%

Q: And the viability, T/C [28]?
A: 54.5%

Q: And the viability, T/C [29]?
A: 44%

Q: What about the viability, T/C [30] of the same molecule?
A: 36.7%

Q: What about the viability, T/C [31] of the same molecule?
A: 87.8%

Q: What about the viability, T/C [32] of the same molecule?
A: 96.4%

Q: And the viability, T/C [33]?
A: 95.9%

Q: And the viability, T/C [34]?
A: 70.5%

Q: And the viability, T/C [35]?
A: 37.2%

Q: And the viability, T/C [36]?
A: 22.6%
